Results reported in ChEMBL document CHEMBL5126651, “ALK Inhibitors for Treating Cancer, Blood, and Kidney Diseases” (ACS Med Chem Lett, 2022).
pIC50: −log10 of the molar value.

Key:
[1] = target: T1, TGF-beta receptor type-1 (Homo sapiens) (UniProt P36897); experiment: Inhibition of TGF-beta receptor 1 in human RD cells transfected with Smad reporter plasmid by reporter gene based One-Glo luciferase assay; format: cell-based
T1 sequence (whole entry): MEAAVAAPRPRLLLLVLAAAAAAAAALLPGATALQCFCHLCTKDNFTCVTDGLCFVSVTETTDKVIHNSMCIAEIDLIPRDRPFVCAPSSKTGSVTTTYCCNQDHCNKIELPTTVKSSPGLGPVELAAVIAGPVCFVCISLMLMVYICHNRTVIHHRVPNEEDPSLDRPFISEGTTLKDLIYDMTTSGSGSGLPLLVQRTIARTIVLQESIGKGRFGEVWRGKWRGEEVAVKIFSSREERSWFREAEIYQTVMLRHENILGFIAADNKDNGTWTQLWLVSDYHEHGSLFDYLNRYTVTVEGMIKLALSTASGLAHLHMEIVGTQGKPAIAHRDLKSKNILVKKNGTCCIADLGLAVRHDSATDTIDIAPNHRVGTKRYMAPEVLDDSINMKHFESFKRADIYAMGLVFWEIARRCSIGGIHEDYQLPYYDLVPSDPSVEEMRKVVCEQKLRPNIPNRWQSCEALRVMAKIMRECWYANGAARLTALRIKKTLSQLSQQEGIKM

TGF-beta receptor type-1 = target: T2, TGF-beta receptor type-1 (Homo sapiens, UniProt P36897); experiment: Displacement of Alexa Fluor labeled tracer 178 from ALK5 (unknown origin) using anti-GST antibody incubated for 60 mins by TR-FRET based LanthaScreen Eu-Kinase binding assay
T2 sequence (P36897 whole entry): T1 sequence (whole entry)

Homo sapiens = species on record: Homo sapiens; experiment: Selectivity ratio of IC50 for ALK2 (unknown origin) to IC50 for ALK5 (unknown origin)

| Structure (SMILES) | INH [1] | pIC50 (TGF-beta receptor type-1) | Ratio IC50 (Homo sapiens) |
| --- | --- | --- | --- |
| Cc1cccc2c(Nc3ccnc(Nc4ccc(N5CCOCC5)cc4)n3)cnnc12 | < 100 nM | ≥ 8.00 | 10 |
| Cc1cccc2c(Nc3ccnc(Nc4cc(CN5CCNCC5)ccc4F)n3)cnnc12 | < 1000 nM | ≥ 8.00 | 10 |
| Cc1cccc2c(Nc3ccnc(Nc4cc(F)cc(CN5CCNCC5)c4)n3)cnnc12 | < 100 nM | ≥ 8.00 | > 10 |
| Cc1c(F)ccc2c(Nc3ccnc(Nc4ccc(N5CCNCC5)cc4)n3)cnnc12 | < 100 nM | ≥ 8.00 | 10 |
| Cc1cccc2c(Nc3ccnc(Nc4ccc(CC5CCNCC5)cc4)n3)cnnc12 | < 1000 nM | > 6.00 | 10 |
| Cc1cc(F)cc2c(Nc3ccnc(Nc4ccc(N5CCN(C)CC5)cc4)n3)cnnc12 | < 100 nM | ≥ 8.00 | 10 |
| Cc1cccc2c(Nc3ccnc(Nc4ccc(N5CCNCC5)c(F)c4)n3)cnnc12 | < 100 nM | ≥ 8.00 | 10 |
| Cc1cccc2c(Nc3nc(Nc4cc(CN5CCNCC5)ccc4F)ncc3F)cnnc12 | < 1000 nM | 8.00 | > 10 |
| Cc1cccc2c(Nc3ccnc(Nc4cccc(N5CCOCC5)c4)n3)cnnc12 | < 100 nM | ≥ 8.00 | 10 |
| Cc1c(F)ccc2c(Nc3ccnc(Nc4ccc(N5CCN(C)CC5)cc4)n3)cnnc12 | < 100 nM | ≥ 8.00 | 10 |
| Cc1cccc2c(Nc3ccnc(Nc4ccc(N5CCOCC5)c(Cl)c4)n3)cnnc12 | < 100 nM | ≥ 8.00 | 10 |
| Cc1cccc2c(Nc3ccnc(Nc4cccc(CN5CCN(C)CC5)c4)n3)cnnc12 | < 100 nM | ≥ 8.00 | > 10 |
